Source: patent US7964598B2 (The J. David Gladstone Institutes, priority 1995, dated 2011)

Legend:
[1] = tested on: apoE4-expressing Neuro-2a cells; assay: Neurite outgrowth, apoE4-expressing Neuro-2a cells; type: cell-based, mouse; details: in the presence of β-VLDL
Method: Cells were grown in DME/F12 containing 10% FBS and G418 (400 μg/ml). On the day the experiment was initiated, the cells were subcultured into 35 mm plates in DME/F12 with 10% FBS. The cells were allowed to adhere to the plastic plates for 2 hr at 37° C., and then the culture medium was changed to N2 medium with or without increasing concentrations of lipoproteins. After 48 hr at 37° C., the media were replaced with the same medium (with or without lipoproteins), and the incubation was continued for an additional 48 hr. […] Neurons were imaged in fluorescence mode with a confocal laser scanning system (MRC-600, BioRad, Hercules, Calif.), and the images were digitized with an Image-1/AT image analysis system (Universal Images, West Chester, Pa.). The neuronal images were coded before characterization, and the following variables were measured: 1) number of neurites (defined as cell surface projections at least one-half the cell diameter) on each neuron; 2) neurite branching (the number of branch points on each neurite); and 3) neurite extension (the length of the longest neurite, measured from the cell body). Typically, in each experiment the neurites of 20 to 40 neurons per plate were measured and the results preserved as the mean±S.E.M. […]

[2] = tested on: apoE4 enhancement of Aβ production; assay: Aβ production assay, B103-APP cells incubated with apoE4; type: cell-based, rat; details: RAP 25 nM, preincubated 1 h
Method: Aβ production assay. Stable neuroblastoma B103 cell lines transfected with a wildtype hAPP cDNA construct (B 103-APP) were selected by growing them in Dulbecco's modified Eagle's medium (DMEM) containing 10% fetal calf serum (FBS) and 400 μg/ml G418. A cell line expressing APP at similar levels in mouse brains has been identified by RNase protection assay (RPA) and was used in the studies described below. To determine Aβ production, B103-APP cells were incubated with serum-free minimal essential medium (MEM) containing N2 supplements with or without apoE isoforms for 24 h at 37° C. After incubation, 50 μl of medium was collected and assayed for Aβ levels with an ELISA method. The cells were lysed, and cellular proteins were determined by the Lowry method. AP production was normalized to cellular protein.
Cell Culture. Rat neuroblastoma B103 cells stably expressing human wildtype APP (hAPP695wt) (Xu et al. ((1999) Proc. Natl. Acad. Sci. USA 96:7547-7552; Esposito, et al. (2004) J. Neurochem. 91:1260-1274) were generated in Dr. Lennart Mucke's laboratory at the Gladstone Institute of Neurological Disease and maintained in Dulbecco's modified Eagle's medium (DMEM) (GIBCO, Grand Island, N.Y.) containing 400 μg/ml G418, 10% fetal bovine serum, and 5% horse serum at 37° C. Twenty-four hours after plating into 48-well plates (1×10^5 cells per well), cells were washed twice with serum-free DMEM and cultured for another 24 h in DMEM containing 1% N-2 supplement (GIBCO) to induce differentiation. The cells were treated with either β-VLDL (25 μg/ml cholesterol), recombinant human apoE isoform-enriched β-VLDL (7.5 μg/ml apoE and 25 μg/ml cholesterol), or recombinant human apoE (7.5 μg/ml apoE) in fresh DMEM containing 1% N-2 supplement for an additional 24 h. In some experiments, RAP (25 nM or 1 μM) was added to the cells 1 h before apoE treatment.
Aβ Assay. Aβ secreted into the medium was detected with a sandwich enzyme-linked immunosorbent assay (ELISA), using mAb 266 as a capturing antibody and 3D6 as a detecting antibody, as described. Johnson-Wood et al. ((1997) Proc. Natl. Acad. Sci. USA 94:1550-1555). Aβ was quantified from a standard curve (Aβ42; Bachem, Torrance, Calif.) and normalized by total cellular protein.

Neuro-2a cells = assay: Binding of DiI-labeled LDL to Neuro-2a cells; type: cell-based, mouse; details: 5 μg/ml of RAP

RAP: receptor-associated protein, 39-kD glycoprotein, LRP antagonist
inhibition of neurite extension seen in the apoE4-expressing cells [1]: blocked the inhibition of neurite extension | apoE4 enhancement of Aβ production [2]: abolished the apoE4-induced enhancement of Aβ production | binding of DiI-labeled LDL to the Neuro-2a cells (Neuro-2a cells): did not block
